Consider nine compounds from ChEMBL document CHEMBL5120930, “Discovery of Benzylpiperazine Derivatives as CNS-Penetrant and Selective Histone Deacetylase 6 Inhibitors” (ACS Med Chem Lett, 2022).

Structures are written as SMILES. Calls of active or inactive are those of the source. No cut-off for these calls is given here.

The species entered for data set [1] is Homo sapiens. Description: Selectivity ratio of IC50 for inhibition of human HDAC1 expressed in human HEK-293T cells using fluorescent peptide RHKKAc as substrate to IC50 for inhibition of mouse HDAC6 expressed in human HEK-293T cells using fluorescent peptide Ac-KGLGK(Ac)-MCA as substrate. It counts as cell-based.
Another data set concerns the target Histone deacetylase 1 (Homo sapiens, UniProt Q13547). Nature of the data set: Inhibition of human HDAC1 expressed in human HEK-293T cells using fluorescent peptide RHKKAc as substrate preincubated for 10 mins followed by substrate addition and measured after 1 hr by fluorogenic assay.
The target of a further data set is Histone deacetylase 4 (Homo sapiens, UniProt P56524). Nature of the data set: Inhibition of human HDAC4 using fluorescent peptide Boc-Lys(trifluoroacetyl)-AMC as substrate preincubated for 10 mins followed by substrate addition and measured after 30 mins by fluorogenic assay.
Histone deacetylase 4, sequence (P56524 whole entry): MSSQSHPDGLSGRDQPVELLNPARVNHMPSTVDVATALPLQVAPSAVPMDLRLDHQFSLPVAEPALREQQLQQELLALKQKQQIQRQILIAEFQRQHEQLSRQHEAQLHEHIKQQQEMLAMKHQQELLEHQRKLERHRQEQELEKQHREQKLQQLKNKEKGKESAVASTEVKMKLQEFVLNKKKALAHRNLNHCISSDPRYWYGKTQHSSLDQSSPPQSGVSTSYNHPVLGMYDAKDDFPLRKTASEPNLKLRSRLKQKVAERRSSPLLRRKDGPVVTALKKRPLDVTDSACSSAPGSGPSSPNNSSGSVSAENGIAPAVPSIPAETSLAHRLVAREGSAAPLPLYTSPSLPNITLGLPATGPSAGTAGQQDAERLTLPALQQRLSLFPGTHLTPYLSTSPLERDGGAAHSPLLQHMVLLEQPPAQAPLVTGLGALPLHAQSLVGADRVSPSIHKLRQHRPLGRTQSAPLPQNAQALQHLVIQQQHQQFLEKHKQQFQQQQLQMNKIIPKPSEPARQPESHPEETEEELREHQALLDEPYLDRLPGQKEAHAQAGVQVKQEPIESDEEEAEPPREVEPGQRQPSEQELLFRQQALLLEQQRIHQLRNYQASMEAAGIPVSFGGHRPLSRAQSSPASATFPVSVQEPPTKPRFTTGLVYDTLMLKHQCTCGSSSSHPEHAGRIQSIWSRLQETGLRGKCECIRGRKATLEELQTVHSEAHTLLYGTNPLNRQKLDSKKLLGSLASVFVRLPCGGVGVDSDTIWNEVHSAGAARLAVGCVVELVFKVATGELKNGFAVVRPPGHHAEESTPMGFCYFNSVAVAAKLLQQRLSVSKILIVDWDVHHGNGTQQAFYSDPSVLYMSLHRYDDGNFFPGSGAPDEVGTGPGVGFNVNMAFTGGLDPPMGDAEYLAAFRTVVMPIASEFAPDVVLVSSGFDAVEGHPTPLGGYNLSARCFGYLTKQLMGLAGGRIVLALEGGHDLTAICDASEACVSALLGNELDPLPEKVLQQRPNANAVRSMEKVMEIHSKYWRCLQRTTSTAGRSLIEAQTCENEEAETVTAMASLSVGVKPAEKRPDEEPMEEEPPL
Data set [2] deals with T1, Protein deacetylase HDAC6 (Mus musculus, UniProt Q9Z2V5).
T1 sequence (Q9Z2V5 whole entry): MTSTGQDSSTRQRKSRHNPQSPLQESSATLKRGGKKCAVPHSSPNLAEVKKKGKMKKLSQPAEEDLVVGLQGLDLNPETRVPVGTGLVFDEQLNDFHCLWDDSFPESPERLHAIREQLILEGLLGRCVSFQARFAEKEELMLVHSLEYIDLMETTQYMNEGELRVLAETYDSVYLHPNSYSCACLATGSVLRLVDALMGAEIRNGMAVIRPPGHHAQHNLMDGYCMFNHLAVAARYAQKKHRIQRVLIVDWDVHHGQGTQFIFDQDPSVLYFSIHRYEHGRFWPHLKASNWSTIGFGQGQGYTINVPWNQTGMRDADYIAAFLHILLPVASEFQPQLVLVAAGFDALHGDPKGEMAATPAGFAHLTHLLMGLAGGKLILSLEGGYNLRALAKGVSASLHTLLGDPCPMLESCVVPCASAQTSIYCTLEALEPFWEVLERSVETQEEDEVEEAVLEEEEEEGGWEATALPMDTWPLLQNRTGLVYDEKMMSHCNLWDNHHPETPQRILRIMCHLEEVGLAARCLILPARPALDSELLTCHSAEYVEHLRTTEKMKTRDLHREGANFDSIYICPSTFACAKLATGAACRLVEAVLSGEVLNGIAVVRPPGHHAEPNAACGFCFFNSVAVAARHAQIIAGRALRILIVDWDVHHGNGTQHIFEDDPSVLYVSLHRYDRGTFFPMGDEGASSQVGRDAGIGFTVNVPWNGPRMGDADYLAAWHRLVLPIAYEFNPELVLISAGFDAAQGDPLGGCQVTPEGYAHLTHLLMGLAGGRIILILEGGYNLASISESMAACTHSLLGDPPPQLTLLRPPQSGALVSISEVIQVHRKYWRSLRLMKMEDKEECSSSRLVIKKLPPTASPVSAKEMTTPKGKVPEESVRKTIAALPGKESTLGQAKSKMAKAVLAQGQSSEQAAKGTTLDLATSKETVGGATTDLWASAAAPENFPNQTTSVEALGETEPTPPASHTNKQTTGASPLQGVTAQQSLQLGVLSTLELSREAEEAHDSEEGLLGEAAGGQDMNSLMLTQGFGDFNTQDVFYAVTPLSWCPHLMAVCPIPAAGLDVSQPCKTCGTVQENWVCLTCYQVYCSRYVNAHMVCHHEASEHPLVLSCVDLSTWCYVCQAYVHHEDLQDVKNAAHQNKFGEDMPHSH
Nature of the data set: Inhibition of mouse HDAC6 expressed in human HEK-293T cells using fluorescent peptide Ac-KGLGK(Ac)-MCA as substrate preincubated for 10 mins followed by substrate addition and measured after 1 hr by fluorogenic assay. It counts as cell-based.

The subject of data set [3] is Mus musculus. Nature of the data set: Antidepressant activity in restraint-stressed C57BL/6J mouse model assessed as reduction in immobility time at 10 mg/kg, ip measured at 14 mins relative to control (Rvb= 569.6 +/- 27.6 sec). It counts as functional.
Data set [4] in a line: Lipophilicity, logD of compound at pH 7.4 measured after 20 mins by UPLC analysis. The settings on record: buffer. It counts as physicochemical.
The nature of data set [5]: Apparent permeability in human Caco-2 cells incubated for 2 hrs by LC-MS/MS analysis. It counts as ADME, cell-based.
The species named for data set [6] is Homo sapiens. Description: Selectivity ratio of IC50 for inhibition of human HDAC4 using fluorescent peptide Boc-Lys(trifluoroacetyl)-AMC as substrate to IC50 for inhibition of mouse HDAC6 expressed in human HEK-293T cells using fluorescent peptide Ac-KGLGK(Ac)-MCA as substrate.
The nature of data set [7]: Metabolic stability in mouse liver microsomes assessed as parent compound remaining at 500 uM measured at 60 mins by LC-MS/MS analysis. It counts as ADME, Microsome. Conditions: read-out: Stability.
The nature of data set [8]: Metabolic stability in human liver microsomes assessed as parent compound remaining at 500 uM measured at 60 mins by LC-MS/MS analysis. It counts as ADME, Microsome. The settings on record: read-out: Stability.
Data set [9] can be described thus: Brain to plasma ratio in C57BL/6J mouse at 10 mg/kg, iv measured after 45 mins by LC-MS/MS analysis. It counts as ADME, organism-based. Conditions: brain and plasma, read-out: BPR.
Data set [10] concerns the target Voltage-gated inwardly rectifying potassium channel KCNH2 (Homo sapiens, UniProt Q12809). Description: Inhibition of human ERG potassium channel by fluorescence polarization assay. It counts as toxicity.
Data set [11] deals with Mus musculus. Nature of the data set: Antidepressant activity in restraint-stressed C57BL/6J mouse model assessed as reduction in immobility time at 20 mg/kg, ip measured at 14 mins relative to control (Rvb= 569.6 +/- 27.6 sec). It counts as functional.
Data set [12] deals with Mus musculus. Nature of the data set: Antidepressant activity in restraint-stressed C57BL/6J mouse model assessed as increase in acetylated alpha tubulin level in brain at 10 mg/kg, ip measured after 15 mins. It counts as functional, organism-based.

Voltage-gated inwardly rectifying potassium channel KCNH2, sequence (Q12809 whole entry): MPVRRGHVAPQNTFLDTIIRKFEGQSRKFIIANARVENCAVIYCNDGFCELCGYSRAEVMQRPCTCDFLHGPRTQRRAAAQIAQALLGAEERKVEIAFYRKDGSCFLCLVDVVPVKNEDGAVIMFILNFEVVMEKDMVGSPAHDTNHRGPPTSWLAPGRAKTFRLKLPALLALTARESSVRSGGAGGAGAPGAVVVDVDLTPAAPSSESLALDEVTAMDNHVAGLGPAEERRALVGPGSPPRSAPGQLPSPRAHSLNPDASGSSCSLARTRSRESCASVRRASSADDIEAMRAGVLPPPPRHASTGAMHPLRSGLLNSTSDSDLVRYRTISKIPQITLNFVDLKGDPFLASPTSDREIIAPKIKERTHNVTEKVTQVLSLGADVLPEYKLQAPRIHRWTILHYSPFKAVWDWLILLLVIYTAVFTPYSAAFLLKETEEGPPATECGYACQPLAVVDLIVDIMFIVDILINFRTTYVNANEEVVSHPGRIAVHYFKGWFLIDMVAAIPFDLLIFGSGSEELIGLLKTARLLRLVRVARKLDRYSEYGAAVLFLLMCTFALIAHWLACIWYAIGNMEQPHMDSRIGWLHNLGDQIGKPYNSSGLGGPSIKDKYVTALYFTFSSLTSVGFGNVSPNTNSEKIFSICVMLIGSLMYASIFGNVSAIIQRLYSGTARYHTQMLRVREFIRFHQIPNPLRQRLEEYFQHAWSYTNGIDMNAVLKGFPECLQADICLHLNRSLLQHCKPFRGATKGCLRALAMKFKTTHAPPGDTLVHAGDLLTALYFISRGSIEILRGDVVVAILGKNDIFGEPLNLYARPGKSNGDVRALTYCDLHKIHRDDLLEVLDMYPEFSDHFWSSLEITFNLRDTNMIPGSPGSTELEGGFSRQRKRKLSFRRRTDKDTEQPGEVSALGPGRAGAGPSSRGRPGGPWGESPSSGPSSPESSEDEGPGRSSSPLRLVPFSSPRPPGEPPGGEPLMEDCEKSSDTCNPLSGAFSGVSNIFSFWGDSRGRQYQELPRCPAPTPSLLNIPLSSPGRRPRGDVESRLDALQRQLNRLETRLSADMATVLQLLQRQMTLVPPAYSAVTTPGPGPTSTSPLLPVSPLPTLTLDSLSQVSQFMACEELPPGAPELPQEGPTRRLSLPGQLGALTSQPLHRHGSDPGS
Histone deacetylase 1, sequence (Q13547 whole entry): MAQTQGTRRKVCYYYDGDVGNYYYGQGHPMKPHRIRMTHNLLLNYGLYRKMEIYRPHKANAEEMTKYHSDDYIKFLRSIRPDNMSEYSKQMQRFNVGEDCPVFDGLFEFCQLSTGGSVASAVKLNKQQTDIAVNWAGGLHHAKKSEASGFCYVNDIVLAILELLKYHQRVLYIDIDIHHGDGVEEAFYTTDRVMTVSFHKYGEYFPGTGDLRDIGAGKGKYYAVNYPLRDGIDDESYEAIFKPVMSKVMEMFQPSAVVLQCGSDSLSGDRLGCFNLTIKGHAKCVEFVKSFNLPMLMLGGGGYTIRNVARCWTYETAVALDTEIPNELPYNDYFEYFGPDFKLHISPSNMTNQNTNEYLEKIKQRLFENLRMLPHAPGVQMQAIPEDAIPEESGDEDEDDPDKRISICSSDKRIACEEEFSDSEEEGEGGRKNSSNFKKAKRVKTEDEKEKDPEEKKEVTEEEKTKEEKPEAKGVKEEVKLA

As for `O=C(NO)c1cccc(CN2CCN(C(c3ccccc3)c3ccccc3)CC2)c1`, in the data set filed under Homo sapiens [1], the Ratio IC50 worked out at 7. Also, the IC50 was 46.6 µM at Histone deacetylase 1, over 100 µM on Histone deacetylase 4 and 6.6 µM in data set [2].

For the compound `O=C(NO)c1ccc(CN2CCN(Cc3ccccc3)CC2)cc1`, in the data set on Mus musculus [3], the Time was 507.3 s. Moreover, the logD at 20 min in [4] was 1.9. For the same compound, the Ratio IC50 in the data set listed under Homo sapiens [1] is 40; in the data set filed under Homo sapiens [6], 35. Also, the Papp at 2 h in data set [5] turned out to be 11.6 ×10⁻⁶ cm/s. The half-inhibitory concentration (IC50) against Histone deacetylase 1 stood at 10.4 µM; against Histone deacetylase 4 it was 9.2 µM; in [10], 73.1 µM; in data set [2], 0.26 µM. Further, the remaining at 1 h, 500 µM in data set [7] was 80%. Besides, the remaining at 1 h in data set [8] amounted to 73%. In addition, the Kp at 0.75 h in [9] is 4.37.

Consider `O=C(NO)c1ccc(CN2CCN(C(c3ccccc3)c3ccccc3)CC2)cc1`, for which the Time with Mus musculus [3] is on record as 410.7 s. In data set [4], this compound gave a logD at 20 min of 3.8. Also, the Ratio IC50 in the data set filed under Homo sapiens [1] and in the data set filed under Homo sapiens [6] was 40 throughout. In data set [5], the apparent permeability coefficient (Papp) at 2 h stood at 17.1 ×10⁻⁶ cm/s. The IC50 against Histone deacetylase 1 came to 4.4 µM; on Histone deacetylase 4, 4.4 µM; in data set [10] it was 0.66 µM; in data set [2] it was 0.11 µM. For the same compound, in [7], the remaining at 1 h, 500 µM came out at 1%. The remaining at 1 h in data set [8] stood at 62%. In addition, in [9], the Kp at 0.75 h is 7.91.

With `CNCCC(Oc1ccc(C(F)(F)F)cc1)c1ccccc1` (stereo not given) [FLUOXETINE], the Time in the data set with Mus musculus [11] is 405.5 s.

Turning to `CC(c1ccccc1)N1CCN(Cc2ccc(C(=O)NO)cc2)CC1` (stereo not given), in the data set on Mus musculus [3], the Time is 453 s. The same compound displayed a log distribution coefficient (logD) at 20 min in [4] of 2.1. Besides, the Ratio IC50 was found to be 26 in the data set filed under Homo sapiens [1] and 47 in the data set filed under Homo sapiens [6]. Moreover, the Papp at 2 h in data set [5] turned out to be 10.9 ×10⁻⁶ cm/s. The IC50 against Histone deacetylase 1 stood at 6.7 µM; on Histone deacetylase 4, 12.3 µM; in data set [10] it was 106 µM; in data set [2] it was 0.26 µM. The remaining at 1 h, 500 µM in data set [7] worked out at 67%. Moreover, the remaining at 1 h in data set [8] amounted to 63%. The outcome in the data set with Mus musculus [12] was Active. Moreover, the Kp at 0.75 h in data set [9] was 6.73.

Take `O=C(NO)c1ccc(CCCN2CCN(C(c3ccccc3)c3ccccc3)CC2)cc1`: the Ratio IC50 in the data set listed under Homo sapiens [1] amounted to 7; in the data set filed under Homo sapiens [6] it was 3. For the same compound, the IC50 at Histone deacetylase 1 was 3.8 µM; on Histone deacetylase 4, 1.9 µM; in data set [2], 0.58 µM.

With `O=C(NO)c1ccccc1CN1CCN(C(c2ccccc2)c2ccccc2)CC1`, the IC50 (against Histone deacetylase 1; on Histone deacetylase 4; in data set [2]) was over 100 µM throughout.

Consider `O=C(NO)c1ccc(CCN2CCN(C(c3ccccc3)c3ccccc3)CC2)cc1`, for which the Ratio IC50 in the data set listed under Homo sapiens [1] turned out to be 15; in the data set listed under Homo sapiens [6], 9. The results for the concentration for half-maximal inhibition (IC50) (on Histone deacetylase 1; on Histone deacetylase 4; in [2]) were 4.8 µM, 3 µM and 0.33 µM, respectively.

For `O=C(NO)c1ccc(CCCCN2CCN(C(c3ccccc3)c3ccccc3)CC2)cc1`, the Ratio IC50 in the data set listed under Homo sapiens [1] was determined as 13; in the data set filed under Homo sapiens [6], 12. Besides, the values for the half-inhibitory concentration (IC50) (at Histone deacetylase 1; on Histone deacetylase 4; in [2]) were 5.5 µM, 5 µM and 0.43 µM, respectively.
